Assay results as given in patent EP3666770A1, “NOVEL HETEROCYCLIC COMPOUNDS AS CDK8/19 INHIBITORS” (Joint Stock Company "Biocad", priority 2017, dated 2019).
Read-outs that look alike come from different tables or passages of the source.

Experiments:
[1] = General cytotoxicity test on HepG2 cells; type: cell-based; conditions: human, HepG2 cells; 72 h incubation; 200 to 0.78 µM; average values of several tests; read-out: Hep-G2 CC50, mkM
Protocol: Cell viability was assessed using the above method. Table 6. […] The results are presented as average values of activity obtained in several tests.

MV4-11 = assay: Cell-based antiproliferative test (AlamarBlue), MV4-11; conditions: 120 h incubation, average values of several tests, read-out: MV-4-11 IC50, mkM
[2] = Enzyme stability in human liver S9 fractions; type: in vitro ADME; conditions: 0,5 mg/mL pooled human liver S9 fractions, 10 µM compound, 37°C, pH=7,4; for microsomal CLint at 10 µM: pH 7.4
Protocol: Measuring of candidates' enzyme stability enabled estimation of the stability of the present compounds towards the action of enzymes in human liver S9 fractions.
Enzyme degradation rate was measured by incubating the reaction mixture in a dry block thermostat at 37°C, said reaction mixture comprising 0,5 mg/mL of pooled human liver S9 fractions (XenoTech, USA, cat#H0610), 10 µM compound, 2 mM β-nicotinamide adenine dinucleotide (Carbosynth, UK, cat#NN10871) and 4 mM magnesium chloride in 0,1 M sodium-phosphate buffer, pH=7,4. The reaction was quenched with acetonitrile (100 µL of acetonitrile / 100 µL of the reaction mixture). After quenching, the samples were centrifuged at 10000 rpm for 10 minutes. Supernatant fluid was tested by chromatographic technique using Agilent1200 (Agilent, USA). Chromatographic analysis was performed in a gradient elution regime with a flow rate of 1 mL/min. A graph of the logarithm of substance's peak area as a function of time was made.

[3] = Chemical stability in human blood plasma; type: in vitro ADME; conditions: pooled human blood plasma; 10 µM; 4 hours at 37°C; substance amount in % after thermostatting
In short: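 Pooled plasma from ten healthy human donors; compound diluted from 10 mM DMSO stock to 10 µm final and incubated 4 h at 37°C. After acetonitrile protein precipitation, HPLC peak areas before and after incubation were compared; value is % compound remaining.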

[4] = Permeability through Caco-2 cell monolayer; type: in vitro ADME; conditions: human, Caco-2; for Papp A→B at 2 h, 10 µM: A->B transfer, pH 6.5 -> pH 7.4, 2 hours at 37 °C; for efflux ratio at 2 h, 10 µM: efflux = Papp B-A / Papp A-B
In short: (§1)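 Caco-2 monolayers grown for 21 days (Lucifer Yellow integrity check) received 10 µM compound apically at pH 6.5 (A→B) or basolaterally at pH 7.4 with 1% BSA on the basolateral side (B→A). After 2 h at 37 °C, both chambers were quantified by HPLC. Efflux ratio = Papp B→A / Papp A→B.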

KG-1 = assay: Cell-based antiproliferative test (AlamarBlue), KG-1; conditions: 120 h incubation, average values of several tests, read-out: KG-1 IC50, mkM
Caco-2 cell monolayer = assay: Permeability through Caco-2 cell monolayer; type: in vitro ADME; conditions: efflux = Papp B-A / Papp A-B
In short: as §1

[5] = Chemical stability in simulated gastric fluid (SGF); type: physicochemical; conditions: SGF without enzymes, pH=1,4; 10 µm; 2 hours at 37°C; substance amount in % after thermostatting
In short: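 Compounds at […] (diluted from DMSO stock) were incubated for 2 h at 37 °C in enzyme-free simulated gastric fluid, pH=1,4. HPLC peak areas before and after incubation gave the % of compound remaining.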

[6] = Enzyme stability in human liver microsomes; type: in vitro ADME; conditions: pH 7.4; 0,5 mg/mL pooled human liver microsomes; 10 µM compound; 37°C; pH=7,4
In short: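 Pooled human liver microsomes (0,5 mg/mL) incubated at 37 °C with 10 µM compound, 2 mM β-NAD and 4 mM MgCl2 in 0,1 M sodium phosphate, pH 7,4. Samples quenched with acetonitrile and analysed by HPLC. Elimination rate constant taken from the slope of log peak area versus time, giving t1/2 and CLint.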

Row | Compound | CC50 at 72 h [1] | IC50 (MV4-11; Homo sapiens, MV4-11, 120 h) | microsomal CLint at 10 µM [2] | Stability in blood plasma, % [3] | Papp A→B at 2 h, 10 µM [4] | efflux ratio at 2 h, 10 µM [4] | IC50 (KG-1; Homo sapiens, KG-1) | IC50 (MV4-11) | Stability in S9, Clint [2] | IC50 (KG-1) | efflux (Caco-2 cell monolayer) | Stability in SGF, % [5] | microsomal CLint at 10 µM [6]
1 | CCN(CC)C(=O)c1cnc2cncc(-c3ccc(-c4cnn(C)c4)cc3)c2c1 [CDK8-3-23, N,N-Diethyl-5-(4-(1-methyl-1H-pyrazol-4-yl)phenyl)-1,7-naphthyridine-3-carboxamide] | > 100000 nM | 413 nM | 9.2 µL/min/mg |  |  |  |  |  |  |  |  |  | 
2 | COCCNC(=O)c1cnc2c(N)ncc(-c3ccc(-c4cnn(C)c4)cc3)c2c1 [CDK8-3-24, 8-Amino-N-(2-methoxyethyl)-5-(4-(1-methyl-1H-pyrazol-4-yl)phenyl)-1,7-naphthyridine-3-carboxamide] | > 200000 nM | 99 nM | 4.6 µL/min/mg | 89.7% | 17 ×10⁻⁶ cm/s | 1.1 |  |  |  |  |  |  | 
3 | COCCN(C)C(=O)c1cnc2cncc(-c3ccc(-c4cnn(C)c4)cc3)c2c1 [CDK8-3-25, N-(2-Methoxyethyl)-N-methyl-5-(4-(1-methyl-1H-pyrazol-4-yl)phenyl)-1,7-naphthyridine-3-carboxamide] | > 100000 nM | 134 nM | 3.3 µL/min/mg |  | 29.3 ×10⁻⁶ cm/s | 0.6 |  |  |  |  |  |  | 
4 | Cn1cc(-c2ccc(-c3cnc(N)c4ncc(C(=O)N5CCC5)cc34)cc2)cn1 [CDK8-3-26, (8-Amino-5-(4-(1-methyl-1H-pyrazol-4-yl)phenyl)-1,7-naphthyridin-3-yl) (azetidin-1-yl)methanone] | 4900 nM | 11 nM | 3.25 µL/min/mg | 95.8% | 53.7 ×10⁻⁶ cm/s | 0.3 | 3 nM |  |  |  |  |  | 
5 | Cn1cc(-c2ccc(-c3cnc(N)c4ncc(C(=O)N5CCOCC5)cc34)cc2)cn1 [CDK8-3-27, (8-Amino-5-(4-(1-methyl-1H-pyrazol-4-yl)phenyl)-1,7-naphthyridin-3-yl) (morpholino)methanone] | 19400 nM | 66 nM | 1.55 µL/min/mg | 94.2% | 22.6 ×10⁻⁶ cm/s | 0.9 |  |  |  |  |  |  | 
6 | COCCN(C)C(=O)c1cnc2c(N)ncc(-c3ccc(-c4cnn(C)c4)cc3)c2c1 [CDK8-3-32] | 20700 nM | 10 nM | 3.8 µL/min/mg | 100% | 24.9 ×10⁻⁶ cm/s | 0.7 | < 10 nM |  |  |  |  |  | 
7 | Cn1cc(-c2ccc(-c3cncc4ncc(C(=O)NCC5CC5)cc34)cc2)cn1 [CDK8-3-39] |  |  |  |  |  |  |  | 55 nM | 10.3 µL/min/mg | 5 nM |  |  | 
8 | Cn1cc(-c2ccc(-c3cnc(N)c4ncc(C(=O)NCC5CC5)cc34)cc2)cn1 [CDK8-3-40, 8-Amino-N-(cyclopropylmethyl)-5-(4-(1-methyl-1H-pyrazol-4-yl)phenyl)-1,7-naphthyridine-3-carboxamide] | 200000 nM | 9 nM | 2.95 µL/min/mg |  |  |  |  |  |  |  |  |  | 
9 | Cn1cc(-c2ccc(-c3cnc(N)c4ncc(C(=O)NCCO)cc34)cc2)cn1 [CDK8-3-42, 8-Amino-N-(2-hydroxyethyl)-5-(4-(1-methyl-1H-pyrazol-4-yl)phenyl)-1,7-naphthyridine-3-carboxamide] | 15900 nM | 28 nM | 0.5 µL/min/mg | 100% | 11.8 ×10⁻⁶ cm/s | 1.6 | 9 nM |  |  |  |  |  | 
10 | COc1cc(-c2cnc3[nH]cc(C(=O)c4ccccn4)c3c2)ccc1N(C)C [CDK8-4-21, (5-(4-(Dimethylamino)-3-methoxyphenyl)-1H-pyrrolo[2,3-b]pyridin-3-yl)(pyridin-2-yl)methanone] | 4700 nM | 740 nM |  | 100% | 106 ×10⁻⁶ cm/s |  |  |  |  |  | 0.09 | 100% | 
11 | COc1ccc(-c2cnc3[nH]cc(C(=O)c4cccnc4)c3c2)c(C#N)c1 [CDK8-4-28, 5-Methoxy-2-(3-nicotinoyl-1H-pyrrolo[2,3-b]pyridin-5-yl) benzonitrile] | > 200000 nM | > 1000 nM |  | 100% | 68.9 ×10⁻⁶ cm/s |  |  |  |  |  | 0.03 | 100% | 6.8 µL/min/mg
